Test results reported in paper PMC9606171, “Synthetic PPAR Agonist DTMB Alleviates Alzheimer’s Disease Pathology by Inhibition of Chronic Microglial Inflammation in 5xFAD Mice” (Neurotherapeutics, 2022).

How the values were obtained:
5xFAD mice [1] = experiment: qPCR and western blot of inflammation markers in 5xFAD brain; type: in vivo
Experimental: (§1) DTMB was synthesized from Daejung Chemicals (Korea) and was dissolved in dimethyl sulfoxide (Sigma Aldrich, St. Louis, MO, USA) for cell-based experiments. To evaluate the effects of DTMB on 5xFAD mice, DTMB (10 mg/kg) and vehicle (1% carboxymethylcellulose and 10% DMSO) were orally administrated to four groups (wild-type, wild-type + DTMB, 5xFAD, and 5xFAD + DTMB) with a 6 day per week for 3 months.
Cells were lysed with lysis buffer containing 50 mM Tris (pH 7.4), 140 mM NaCl, 5 mM EDTA, and a protease inhibitor tablet, followed by sonication. Lysate protein concentrations were determined using Bradford reagents (AMERSCO, MA, USA). Proteins were resolved by sodium dodecyl sulfate (SDS) polyacrylamide gel electrophoresis, transferred to nitrocellulose membranes (Pall Corporation, New York, NY, USA), and incubated with blocking buffer (5% nonfat dry milk in TBS and 0.1% Tween 20) for 30 min. Western blot analyses were performed using primary antibodies against NF-κB, NLRP3, ASC, nicastrin, pen2 (Cell Signaling Technology, Danvers, MA, USA), Aph1 (Invitrogen), amyloid C-terminal fragment (Santa Cruz Biotechnology, Dallas, TX, USA), and GAPDH (Bethyl Laboratories, Mongomery, TX, USA). Secondary antibodies of rabbit (Promega), rat, and goat (Bethyl Laboratories) were used, and detection was performed with SUPEX ECL reagent (Neuronex, Korea) and an ImageQuant LAS-4000 (GE Healthcare, MA, USA), according to the manufacturer’s instructions. The integrated blot density was quantified through ImageJ.
Total RNA was isolated using TRI Reagent (Molecular Research Center, Cincinnati, OH, USA). RNA was reverse transcribed using the ImProm-II™ Reverse Transcription System (Promega) according to the manufacturer’s instructions. For detection and quantification, a StepOnePlus Real-Time PCR System (Applied Biosystems, Foster City, CA, USA) was used with FastStart Universal SYBR Green Master (Roche, Basel, Switzerland). Real-time qPCR data were analyzed using the comparative CT method. Sample sizes were 10–15 mice per group.

HMO6 cell line = experiment: Cell viability assay (MTT), HMO6; type: cell-based; details: 48 h
Experimental: (§2) Cell viability was measured by chromogenic assay involving the biological reduction of 3-(4,5-dimethyl-thiazol-2-yl)-2,5-diphenyltetrazoliumbromide (MTT) to formazan in living cells. Briefly, cells were seeded in 96-well plates in a final volume of 100 μL. After 24 h, the culture media were replaced with fresh media containing DTMB compounds, and the cells were cultured for another 48 h. Next, MTT (5 mg/mL in PBS) was added to the culture medium. The cells were incubated for 1 h in the dark at 37 °C, and the supernatant was then removed from the well. Total MTT solvent (4 mM HCl and 0.1% Nonidet P-40, both in isopropanol) was added to dissolve the formazan crystal, and absorbance was measured at 570 nm using a microplate reader Infinite 200 Pro NanoQuant microplate reader (TECAN, Switzerland).

5xFAD mice [2] = experiment: Y-maze test in 5xFAD mice; type: in vivo; details: 10 mg/kg orally, 3 months
Experimental: as §1
The Y-maze test was conducted using a black y-shaped maze apparatus that has three equal-sized arms (40 × 3 × 12 cm) separated at 120° angles. The mice were placed into the same side of the arm at every trial and freely moved for 8 min under the dim light conditions (50 lx). To measure spatial memory, the number of arm entries to other sides was measured. The percentage of spontaneous alternation was calculated using the following formula: 100×(ActualAlteration/(Total#ofarmentrance-2)) . Sample sizes were 20–25 mice per group.

5xFAD mice [3] = experiment: Immunohistochemistry of Aβ plaques (6e10) in 5xFAD brain; type: in vivo; details: 10 mg/kg orally, 3 months, versus transgenic control
Experimental: as §1
Mice were perfused with ice-cold phosphate-buffered saline (PBS). Brain tissues were separately used for either molecular analysis or immunohistochemistry. The right hemisphere was fixed with 4% PFA and was transferred to a sucrose solution (30%) for 24 h. The right hemisphere was embedded and frozen in optimal cutting temperature compound on dry ice. Coronal Sections (18 μm thick) that included the hippocampus were cut and prepared on slide glasses. Tissue sections were then permeabilized and blocked using a blocking solution (5% goat serum and 0.2% Triton X-100 in PBS) for 1 h at room temperature. Primary antibody incubation was performed overnight at 4 °C using an anti-6e10 antibody (Biolegend, Japan, 1:100), anti-Iba1 antibody (Wako, Japan, 1:200), and anti-GFAP antibody (Abcam, Cambridge, UK, 1:200). […] Slides were counterstained in Hoechst and then mounted in fluorescence mounting medium (Dako, Denmark). […] Fluorescence was measured by calculating % area and was analyzed using ImageJ. […]

RAW 264.7 = experiment: Cell viability assay (MTT), RAW 264.7; type: cell-based; details: 48 h
Experimental: as §2

PPARα = target: T1, PPARα (Homo sapiens, UniProt Q07869); experiment: Gal4-transactivation luciferase assay in HEK293A cells, PPARα LBD; type: cell-based
T1 construct: pcDNA5-GAL4-PPAR LBD, pG5-luc, and Rluc vector (as control) were transfected into HEK293A cells; expressed in transfected cells; host or cells: HEK293A
T1 sequence (Q07869 239-466 limits assumed): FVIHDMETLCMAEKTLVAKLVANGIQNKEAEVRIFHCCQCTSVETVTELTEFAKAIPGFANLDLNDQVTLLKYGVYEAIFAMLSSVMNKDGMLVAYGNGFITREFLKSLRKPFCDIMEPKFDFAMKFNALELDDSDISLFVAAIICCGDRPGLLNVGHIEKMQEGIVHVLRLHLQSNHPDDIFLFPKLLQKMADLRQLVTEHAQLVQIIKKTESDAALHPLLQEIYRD
Experimental: HEK293A cells were transfected with the GAL4-reporter plasmids and pGL4.74 (Promega, Madison, WI, USA) as an internal standard through electroporation using a Neon Transfection System (Invitrogen, Carlsbad, CA, USA). All vector materials were provided by Professor Yuichiro Kanno at Toho University. Cells were treated with DTMB and each positive control compound for 24 h after overnight incubation. Cells were then harvested and resuspended in luciferase lysis buffer (Promega), followed by incubation on ice for 10 min. Cell debris was removed by centrifugation at 20,000 × g at 4 °C for 10 min, and the supernatants were used for luciferase assay. Using a dual-luciferase reporter assay system (Promega), luciferase activities were measured according to the manufacturer’s instructions. Experimental firefly luciferase activities were normalized against those of Renilla luciferase.

[4] = hippocampal brain lysates, 5xFAD mice

relative luciferase activity (PPARα; HEK293A, 24 h, various concentrations): increased luciferase activity
transactivation (luciferase activity) compared to positive control (PPARα; versus WY14643): stronger than the positive control
SMILES: COc1ccc(-c2cc(=O)oc3c(C)c(OC(=O)[C@H](Cc4c[nH]c5ccccc45)NC(=O)OC(C)(C)C)ccc23)cc1 [DTMB]
expression levels of proinflammatory cytokines and related enzymes (Il-1β, Il-6, and Inos) (5xFAD mice [1]; 5xFAD mouse brain, 10 mg/kg orally, 3 months): decreased
level of ASC (5xFAD mice [1]; [4]): not changed significantly
protein level of NF-κB (5xFAD mice [1]; [4]): decreased
protein level of NLRP3 (5xFAD mice [1]; [4]): decreased
cytotoxicity (MTT) (HMO6 cell line): no cytotoxicity
Y-maze alternation (5xFAD mice [2]): improvement with a percentage similar to that of the wild-type mouse group
amount of Aβ aggregates in the hippocampus and cortex (5xFAD mice [3]): significantly decreased
cytotoxicity (MTT) (RAW 264.7): no cytotoxicity
